Test results as given in ChEMBL document CHEMBL1201862, “PubChem BioAssay data set” (2004).
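Values below derive from 48-hour exposures of cells grown in 96-well plates, with endpoints linearly interpolated between the two concentrations bracketing the appropriate inhibition level. GI50 marks 50% less growth.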 Activity calls are given as the source filed them. No stated cut-off is given here; in the data, active = GI50 up to about 1.1 µM and inactive = higher.

Assays:
Assay in all cases: inhibition of tumour cell growth, NCI panel, 48 h
LOX IMVI = tested on: LOX IMVI
MOLT-4 = tested on: MOLT-4
NCI/ADR-RES = tested on: NCI/ADR-RES
SK-MEL-28 = tested on: SK-MEL-28
HOP-92 = tested on: HOP-92
SF-295 = tested on: SF-295
SNB-75 = tested on: SNB-75
SF-268 = tested on: SF-268
M14 = tested on: M14
CCRF-CEM = tested on: CCRF-CEM
MCF7 = tested on: MCF7
TK-10 = tested on: TK-10
U-251 = tested on: U-251
PC-3 = tested on: PC-3
OVCAR-4 = tested on: OVCAR-4
SF-539 = tested on: SF-539
SW-620 = tested on: SW-620
HCT-116 = tested on: HCT-116
786-0 = tested on: 786-0
EKVX = tested on: EKVX
HL-60 = tested on: HL-60
SK-MEL-2 = tested on: SK-MEL-2
CAKI-1 = tested on: CAKI-1
IGROV-1 = tested on: IGROV-1
HCC 2998 = tested on: HCC 2998
OVCAR-5 = tested on: OVCAR-5
BT-549 = tested on: BT-549
DU-145 = tested on: DU-145
HOP-62 = tested on: HOP-62
UACC-257 = tested on: UACC-257
MDA-MB-231 = tested on: MDA-MB-231
MDA-MB-435 = tested on: MDA-MB-435
SNB-19 = tested on: SNB-19
OVCAR-8 = tested on: OVCAR-8
NCI-H460 = tested on: NCI-H460
OVCAR-3 = tested on: OVCAR-3
SK-MEL-5 = tested on: SK-MEL-5
SN12C = tested on: SN12C
UO-31 = tested on: UO-31
UACC-62 = tested on: UACC-62
Hs-578T = tested on: Hs-578T
MDA-N = tested on: MDA-N
RXF 393 = tested on: RXF 393
KM12 = tested on: KM12
HCT-15 = tested on: HCT-15
COLO 205 = tested on: COLO 205
SK-OV-3 = tested on: SK-OV-3
A549 = tested on: A549
NCI-H23 = tested on: NCI-H23
NCI-H522 = tested on: NCI-H522
ACHN = tested on: ACHN
Malme-3M = tested on: Malme-3M
K562 = tested on: K562
A498 = tested on: A498
RPMI-8226 = tested on: RPMI-8226
SR = tested on: SR
HT-29 = tested on: HT-29
NCI-H226 = tested on: NCI-H226

Compound: C=CCN(CC=C)Cn1c(=S)sc2ccccc21
- GI50 (LOX IMVI): 17.8 µM (inactive)
- GI50 (MOLT-4): 94.8 µM (inactive)
- GI50 (NCI/ADR-RES): > 100 µM (inactive)
- GI50 (SK-MEL-28): 37.5 µM (inactive)
- GI50 (HOP-92): 36.4 µM (inactive)
- GI50 (SF-295): > 100 µM (inactive)
- GI50 (SNB-75): > 100 µM (inactive)
- GI50 (SF-268): > 100 µM (inactive)
- GI50 (M14): > 100 µM (inactive)
- GI50 (CCRF-CEM): 22.2 µM (inactive)
- GI50 (MCF7): > 100 µM (inactive)
- GI50 (TK-10): > 100 µM (inactive)
- GI50 (U-251): > 100 µM (inactive)
- GI50 (PC-3): > 100 µM (inactive)
- GI50 (OVCAR-4): 86.3 µM (inactive)
- GI50 (SF-539): 55.6 µM (inactive)
- GI50 (SW-620): 48.8 µM (inactive)
- GI50 (HCT-116): > 100 µM (inactive)
- GI50 (786-0): > 100 µM (inactive)
- GI50 (EKVX): > 100 µM (inactive)
- GI50 (HL-60): 16.5 µM (inactive)
- GI50 (SK-MEL-2): > 100 µM (inactive)
- GI50 (CAKI-1): 15.3 µM (inactive)
- GI50 (IGROV-1): 36.6 µM (inactive)
- GI50 (HCC 2998): > 100 µM (inactive)
- GI50 (OVCAR-5): > 100 µM (inactive)
- GI50 (BT-549): > 100 µM (inactive)
- GI50 (DU-145): > 100 µM (inactive)
- GI50 (HOP-62): > 100 µM (inactive)
- GI50 (UACC-257): > 100 µM (inactive)
- GI50 (MDA-MB-231): 54.3 µM (inactive)
- GI50 (MDA-MB-435): > 100 µM (inactive)
- GI50 (SNB-19): > 100 µM (inactive)
- GI50 (OVCAR-8): > 100 µM (inactive)
- GI50 (NCI-H460): 82.8 µM (inactive)
- GI50 (OVCAR-3): > 100 µM (inactive)
- GI50 (SK-MEL-5): 28.8 µM (inactive)
- GI50 (SN12C): > 100 µM (inactive)
- GI50 (UO-31): 38.8 µM (inactive)
- GI50 (UACC-62): 55.1 µM (inactive)
- GI50 (Hs-578T): > 100 µM (inactive)
- GI50 (MDA-N): > 100 µM (inactive)
- GI50 (RXF 393): > 100 µM (inactive)
- GI50 (KM12): > 100 µM (inactive)
- GI50 (HCT-15): 45 µM
- GI50 (COLO 205): 48.6 µM (inactive)
- GI50 (SK-OV-3): 91.4 µM (inactive)
- GI50 (A549): > 100 µM (inactive)
- GI50 (NCI-H23): > 100 µM (inactive)
- GI50 (NCI-H522): 18.7 µM (inactive)
- GI50 (ACHN): > 100 µM (inactive)

Compound: CCOc1snc(C(Cl)(Cl)Cl)c1Cl
- GI50 (LOX IMVI): 16.9 µM (inactive)
- GI50 (MOLT-4): 13.3 µM (inactive)
- GI50 (Malme-3M): 22.2 µM (inactive)
- GI50 (SK-MEL-28): 25.5 µM (inactive)
- GI50 (SF-295): 21.9 µM (inactive)
- GI50 (SNB-75): 17.7 µM (inactive)
- GI50 (SF-268): 17.7 µM (inactive)
- GI50 (M14): 29 µM (inactive)
- GI50 (CCRF-CEM): 17.3 µM (inactive)
- GI50 (MCF7): 25 µM (inactive)
- GI50 (TK-10): 23.1 µM (inactive)
- GI50 (U-251): 27.7 µM (inactive)
- GI50 (PC-3): 28.4 µM (inactive)
- GI50 (OVCAR-4): 27.1 µM (inactive)
- GI50 (SF-539): 60.5 µM (inactive)
- GI50 (SW-620): 30.3 µM (inactive)
- GI50 (HCT-116): 17.3 µM (inactive)
- GI50 (K562): 9.33 µM (inactive)
- GI50 (786-0): 31.7 µM (inactive)
- GI50 (EKVX): 15.8 µM (inactive)
- GI50 (HL-60): 13.2 µM (inactive)
- GI50 (CAKI-1): 12.3 µM (inactive)
- GI50 (IGROV-1): 31 µM (inactive)
- GI50 (HCC 2998): 22.4 µM (inactive)
- GI50 (OVCAR-5): > 100 µM (inactive)
- GI50 (BT-549): 10.7 µM (inactive)
- GI50 (DU-145): 16.6 µM (inactive)
- GI50 (HOP-62): 27.4 µM (inactive)
- GI50 (UACC-257): 14.3 µM (inactive)
- GI50 (MDA-MB-231): 22.4 µM (inactive)
- GI50 (MDA-MB-435): 18.3 µM (inactive)
- GI50 (A498): 11.7 µM (inactive)
- GI50 (SNB-19): 6.75 µM (inactive)
- GI50 (OVCAR-8): 24.4 µM (inactive)
- GI50 (NCI-H460): 26.9 µM (inactive)
- GI50 (OVCAR-3): 14.1 µM (inactive)
- GI50 (SK-MEL-5): 7.83 µM (inactive)
- GI50 (SN12C): 23.8 µM (inactive)
- GI50 (UO-31): 5.58 µM (inactive)
- GI50 (UACC-62): 19.4 µM (inactive)
- GI50 (Hs-578T): 18.9 µM (inactive)
- GI50 (MDA-N): 21.9 µM (inactive)
- GI50 (RXF 393): 13.6 µM (inactive)
- GI50 (RPMI-8226): 15.5 µM (inactive)
- GI50 (SR): 14 µM (inactive)
- GI50 (KM12): 19.8 µM (inactive)
- GI50 (HCT-15): 24.2 µM
- GI50 (COLO 205): 18.8 µM (inactive)
- GI50 (HT-29): 15.5 µM (inactive)
- GI50 (SK-OV-3): 28.6 µM (inactive)
- GI50 (A549): 17.5 µM (inactive)
- GI50 (NCI-H23): 12 µM (inactive)
- GI50 (NCI-H226): 9.33 µM (inactive)
- GI50 (ACHN): 7.85 µM (inactive)

Compound: Cc1ccc(S(=O)(=O)NC(=O)Nc2ccc(S(N)(=O)=O)cc2S(N)(=O)=O)cc1
- GI50 (LOX IMVI): > 100 µM (inactive)
- GI50 (MOLT-4): > 100 µM (inactive)
- GI50 (NCI/ADR-RES): > 100 µM (inactive)
- GI50 (Malme-3M): > 100 µM (inactive)
- GI50 (SK-MEL-28): > 100 µM (inactive)
- GI50 (HOP-92): > 100 µM (inactive)
- GI50 (SF-295): > 100 µM (inactive)
- GI50 (SNB-75): > 100 µM (inactive)
- GI50 (SF-268): > 100 µM (inactive)
- GI50 (M14): > 100 µM (inactive)
- GI50 (CCRF-CEM): > 100 µM (inactive)
- GI50 (MCF7): > 100 µM (inactive)
- GI50 (TK-10): > 100 µM (inactive)
- GI50 (U-251): > 100 µM (inactive)
- GI50 (PC-3): > 100 µM (inactive)
- GI50 (OVCAR-4): > 100 µM (inactive)
- GI50 (SW-620): > 100 µM (inactive)
- GI50 (HCT-116): > 100 µM (inactive)
- GI50 (K562): > 100 µM (inactive)
- GI50 (786-0): > 100 µM (inactive)
- GI50 (EKVX): > 100 µM (inactive)
- GI50 (HL-60): > 100 µM (inactive)
- GI50 (SK-MEL-2): > 100 µM (inactive)
- GI50 (CAKI-1): > 100 µM (inactive)
- GI50 (IGROV-1): > 100 µM (inactive)
- GI50 (OVCAR-5): > 100 µM (inactive)
- GI50 (BT-549): > 100 µM (inactive)
- GI50 (DU-145): > 100 µM (inactive)
- GI50 (HOP-62): > 100 µM (inactive)
- GI50 (UACC-257): > 100 µM (inactive)
- GI50 (MDA-MB-231): > 100 µM (inactive)
- GI50 (MDA-MB-435): > 100 µM (inactive)
- GI50 (SNB-19): > 100 µM (inactive)
- GI50 (OVCAR-8): > 100 µM (inactive)
- GI50 (OVCAR-3): > 100 µM (inactive)
- GI50 (SK-MEL-5): > 100 µM (inactive)
- GI50 (SN12C): > 100 µM (inactive)
- GI50 (UO-31): > 100 µM (inactive)
- GI50 (UACC-62): > 100 µM (inactive)
- GI50 (Hs-578T): > 100 µM (inactive)
- GI50 (MDA-N): > 100 µM (inactive)
- GI50 (RXF 393): > 100 µM (inactive)
- GI50 (RPMI-8226): > 100 µM (inactive)
- GI50 (KM12): > 100 µM (inactive)
- GI50 (HCT-15): > 100 µM
- GI50 (COLO 205): > 100 µM (inactive)
- GI50 (HT-29): > 100 µM (inactive)
- GI50 (SK-OV-3): > 100 µM (inactive)
- GI50 (A549): > 100 µM (inactive)
- GI50 (NCI-H23): > 100 µM (inactive)
- GI50 (NCI-H522): > 100 µM (inactive)
- GI50 (NCI-H226): > 100 µM (inactive)
